Consider 71 compounds from PubChem BioAssay AID179 (DTP/NCI, 2004).

For this assay, the system named is CEM cells HIV-1 protection, formazan growth assay. Briefly: NCI AIDS Antiviral Assay. The note with it: for IC50: measured here: growth of uninfected CEM cells. In short, it runs like this: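 Five concentrations of each compound were applied to infected and uninfected human CEM cells. Protection from HIV-1 was judged from growth measured with a soluble formazan assay.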

Calls of active or inactive are those of the source.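 How the source made its calls: active means compounds giving half or more protection of infected cells from virus-caused growth loss, again on retest; inactive means the rest.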

Regarding `CN(C)c1ccc(C2NCCc3c2[nH]c2ccccc32)cc1` (stereo not given), the EC50 was > 200 µM and the IC50 stood at 25.1 µM.
For `CCC1(C)C=Cc2c(cc(OC)c3c(=O)c4ccccc4n(C)c23)O1` (stereo not given), in that order: > 200 µM and 24.5 µM.
Consider `CCOC(=O)/C(=C\c1ccc(C#N)cc1)[Se]c1ccccc1`, for which the EC50 is > 52.5 µM and the IC50 is > 52.5 µM.
On to `COc1ccc(OC)c(CCc2ccccc2CC(=O)O)c1`, for which the EC50 was > 832 µM and the IC50 came to 501 µM.
Regarding `C=C(CBr)CCCOCc1ccccc1`, the EC50 is > 200 µM and the IC50 came out at 105 µM.
Regarding `NC(Cc1ccc(O)cn1)C(=O)O` (stereo not given), the EC50 was > 200 µM and the IC50 is > 200 µM.
Consider `O=c1[nH]nc(Cl)c2c(O)c3ccccc3c(O)c12`, for which the EC50 was > 67.6 µM and the concentration for half-maximal inhibition (IC50) turned out to be 32.4 µM.
With `N/N=C(\CCN1CCCC1)CC(c1ccccc1)c1c(O)c2ccccc2oc1=O` (stereo not given), the EC50 is > 58.9 µM and the IC50 was > 58.9 µM.
On to `COc1ccc(C(=O)NC(=S)Nc2ccccc2)cc1`, for which the EC50 is > 34.7 µM and the IC50 is > 34.7 µM.
With `CC(O)C(=O)[O][Pb]([CH3])([CH3])[CH3]` (stereo not given), the EC50 was > 200 µM and the IC50 was > 200 µM.
For `O=C(CN(c1ccc(S(=O)(=O)O)cc1)c1ccc(S(=O)(=O)O)cc1)Nn1cnc2ccc(S(=O)(=O)N(c3ccc(S(=O)(=O)O)cc3)c3ccc(S(=O)(=O)O)cc3)cc2c1=O`, the EC50 was > 100 µM and the IC50 is 95.5 µM.
Taken in the same sequence, the figures for `O=C(/C=C\c1cccc2ccccc12)c1ccc(Cl)cc1Cl` were > 1.66 µM and > 1.66 µM.
Taken in the same sequence, the figures for `Oc1cccc2nc3cc(CN4CCOCC4)c(CN4CCOCC4)cc3nc12` were > 18.2 µM and > 18.2 µM.
For `O=S(=O)(O)CCN(CCO)CCO`, in that order: > 200 µM and > 200 µM.
Regarding `Cc1[nH]nc(N)c1C#N`, the EC50 is > 200 µM and the IC50 was 191 µM.
Taken in the same sequence, the figures for `COc1cc(/C=C(\C#N)C(=O)c2ccccc2)cc(OC)c1OC` were > 16.2 µM and > 16.2 µM.
For `Cc1cccc(NC(=S)N=Nc2c(O)[nH]c3ccccc23)c1`, in that order: > 200 µM and 117 µM.
For `CC1(C)N=C(/C(Cl)=[N+](/[O-])C(=O)c2ccc(Cl)cc2)C(C)(C)N1O`, in that order: > 100 µM and 8.91 µM.
Take `CN1C(=O)N/C(=C\c2ccc(S(=O)(=O)N/N=C\C(O)C(O)C(O)CO)cc2)C1=O` (stereo not given): the EC50 is > 200 µM and the IC50 was > 200 µM.
With `Nc1ccc2cc(S(=O)(=O)O)cc(O)c2c1N=Nc1ccc(NC(=O)c2ccc(C(=O)Nc3ccc(N=Nc4c(N)ccc5cc(S(=O)(=O)O)cc(O)c45)c(S(=O)(=O)O)c3)cc2)cc1S(=O)(=O)O`, the result was active.
Regarding `N#CCCC1(CCC#N)CCCCCCC(CCC#N)(CCC#N)C(O)C1O` (stereo not given), the EC50 is > 200 µM and the IC50 was > 200 µM.
In the case of `CCOC(=O)COc1ccc(C[C@H](NC(=O)O[C@H]2CCOC2)[C@H](O)CN(CC(C)C)S(=O)(=O)c2ccc(N)cc2)cc1`, the EC50 is 0.0589 µM and the IC50 is 64.6 µM.
Turning to `COc1ccc(Cc2c(-c3ccc(C)cc3)n[nH]c(=O)c2C2C(=O)N(c3ccccc3)N=C2c2ccccc2)cc1` (stereo not given), the EC50 was > 200 µM and the half-maximal inhibitory concentration (IC50) stood at 38 µM.
For `CC1(O)c2ccccc2CCc2ccccc21`, in that order: > 32.4 µM and > 32.4 µM.
As for `COC(=O)c1ccc2c(c1)CC1(C2)Cc2ccccc2C1=O` (stereo not given), the EC50 was > 200 µM and the IC50 was 28.2 µM.
For `Cc1c(C(=O)Nc2ccccc2)nnn1-c1ccnc2cc(C(F)(F)F)ccc12`, in that order: > 200 µM and > 200 µM.
Taken in the same sequence, the figures for `COc1ccccc1Nc1nc(N)nc(N)c1N` were > 200 µM and 36.3 µM.
For the compound `O=C1N(Cc2ccccc2)C2CSCC2N1Cc1ccccc1` (stereo not given), the EC50 is > 200 µM and the IC50 stood at 87.1 µM.
With `CC1(C)COC2C(N(Cc3ccccc3)Cc3ccccc3)C(=O)N21` (stereo not given), the outcome was inactive.
On to `CN(C)Cc1cc(N=Nc2ccc(Cl)cc2)ccc1OC(=O)c1ccccc1`, for which the EC50 was > 200 µM and the IC50 was found to be 14.5 µM.
For `S=C(/N=c1/sc(Nc2ccccc2)nc2sc3c(c12)CCCC3)Nc1ccccc1`, in that order: > 126 µM and > 126 µM.
Taken in the same sequence, the figures for `C=C(CN(CC)CC)C1(c2ccccc2)CC2(CCCC2)C(=O)O1` (stereo not given) were > 200 µM and 117 µM.
Taken in the same sequence, the figures for `Oc1cccc2cc(Br)cnc12` were > 20 µM and 5.01 µM.
Regarding `CCOC(=O)/C(=C\c1ccc(F)cc1)C(C)=O`, the EC50 is > 398 µM and the IC50 was found to be 79.4 µM.
Taken in the same sequence, the figures for `CC1(C)CC(=O)CC(=Nc2ccc([N+](=O)[O-])cc2)C1` were > 52.5 µM and > 52.5 µM.
Taken in the same sequence, the figures for `CCC(=O)N/S(=N/S(=O)(=O)c1ccccc1)C(Cl)(Cl)Cl` (stereo not given) were > 200 µM and > 200 µM.
In the case of `NCCNc1ccc([N+](=O)[O-])c2c(=O)c3ccccc3[nH]c12`, the outcome was inactive.
Take `O=c1c(SCc2ccc(Cl)cc2)c(N2CCCCC2)cnn1-c1ccccc1`: the EC50 was > 24 µM and the IC50 was > 24 µM.
For `C=CC12CN3C4C3C1C1(CCC42)C(=O)N(COCC[Si](C)(C)C)c2ccccc21` (stereo not given), the EC50 is > 63.1 µM and the IC50 was 25.7 µM.
As for `COc1ccc2cc1Oc1ccc(cc1)C[C@@H]1c3cc(c(OC)cc3CCN1C)Oc1c(OC)c(OC)cc3c1[C@H](C2)N(C)CC3`, the result was inactive.
Regarding `CN1CN(c2ccccc2)C2(CCN(CCCC3(c4cccs4)OCCO3)CC2)C1=O`, the EC50 was > 200 µM and the IC50 is 107 µM.
For `Cc1ccc(S(=O)(=O)NNS(C)(=O)=O)cc1`, in that order: > 955 µM and 646 µM.
Consider `CC(C)(C)C1CCC(C[Se]c2ccccc2)([N+](=O)[O-])CC1` (stereo not given), for which the result was inactive.
Regarding `CC1=C(O)C(=O)C2C(=O)C1C(C)C2c1ccc(Cl)cc1` (stereo not given), the EC50 was > 123 µM and the IC50 was > 123 µM.
Consider `CN(C)c1cccc2c(S(=O)(=O)NCCCNCCN)cccc12`, for which the EC50 was > 200 µM and the IC50 amounted to 66.1 µM.
Taken in the same sequence, the figures for `CC[C@@H]1OC2(C)CC(S(=O)(=O)c3ccccc3O)CC1O2` (stereo not given in full) were > 794 µM and 741 µM.
Take `O=C1C=C(NCCc2ccccc2)c2ccccc2C1=O`: the EC50 was > 36.3 µM and the IC50 is 25.1 µM.
Taken in the same sequence, the figures for `O=C(C1CC2CCN1CC2)N1CCN(C(=O)C2CC3CCN2CC3)CC1` (stereo not given) were > 200 µM and > 200 µM.
For `Clc1ccc2c(SCC3CO3)c3ccccc3nc2c1` (stereo not given), the EC50 is > 200 µM and the IC50 amounted to 2.57 µM.
For `CNc1cc([N+](=O)[O-])ccc1C(=O)N1CCC[C@H]1CO`, in that order: > 200 µM and > 200 µM.
Taken in the same sequence, the figures for `Nc1c(S(=O)(=O)O)cc(S(=O)(=O)O)c2ccc(N=Nc3ccc(CCc4ccc(N=Nc5ccc6c(S(=O)(=O)O)cc(S(=O)(=O)O)c(N)c6c5O)cc4S(=O)(=O)O)c(S(=O)(=O)O)c3)c(O)c12` were 8.13 µM and 138 µM.
In the case of `O=C(/C=C/c1ccsc1)c1cccs1`, the EC50 was > 200 µM and the IC50 amounted to 3.55 µM.
Taken in the same sequence, the figures for `CCC/C(Cl)=N/OC(=O)Nc1cc(C(F)(F)F)ccc1OC` were > 200 µM and 3.39 µM.
Taken in the same sequence, the figures for `COc1ccc(/C=C2\N=C(SC)N(CN3CCOCC3)C2=O)cc1` were > 200 µM and 29.5 µM.
For `COc1ccccc1Cn1nc(OC)c2cc([N+](=O)[O-])ccc21`, in that order: > 151 µM and > 151 µM.
As for `NC(CCCCCP(=O)(O)O)C(=O)O` (stereo not given), the EC50 was > 200 µM and the concentration for half-maximal inhibition (IC50) is > 200 µM.
In the case of `CCC[CH2][Sn]([CH2]CCC)([O]C(=O)c1cccnc1SC)[O]C(=O)c1cccnc1SC`, the EC50 was > 12.6 µM and the IC50 was found to be 9.12 µM.
For `NC(CSSCC(N)=NCCCCCSC12CC3CC(CC(C3)C1)C2)=NCCCCCSC12CC3CC(CC(C3)C1)C2`, in that order: > 200 µM and 6.17 µM.
For `C(=C\c1ccnc2ccccc12)/c1cccnc1`, in that order: > 155 µM and 42.7 µM.
Taken in the same sequence, the figures for `O=C(O)C12CC3CC(C1)C2C=C3P(=O)(O)O` (stereo not given) were > 1020 µM and > 1020 µM.
`CN(C)CCCSCC(COc1nccc(-c2ccc(-c3ccc(-c4ccnc(OCC(CSCCCN(C)C)SCCCN(C)C)n4)s3)s2)n1)SCCCN(C)C` (stereo not given): the EC50 is > 4.27 µM and the IC50 worked out at 2.69 µM.
Take `CC(=O)OC1C(CCl)OC(N=[N+]=[N-])C(OC(C)=O)C1OC(C)=O` (stereo not given): the result was inactive.
In the case of `O=C(c1ccccc1)N1CCC(Nc2nccs2)O1` (stereo not given), the EC50 was > 200 µM and the concentration for half-maximal inhibition (IC50) was > 200 µM.
In the case of `O=[N+]([O-])c1ccc2cnn(CN3CCCCC3)c2c1`, the EC50 was > 200 µM and the IC50 is 89.1 µM.
On to `O=C(Cn1c2ccc(Br)cc2c2nc3ccccc3nc21)N1CCOCC1`, for which the EC50 was > 100 µM and the half-inhibitory concentration (IC50) is > 100 µM.
`C/C(=N\OC(=O)Nc1ccccc1)c1ccccc1`: the EC50 is > 200 µM and the IC50 was 132 µM.
For `O=c1ccnc(Nc2ccc[nH]c2=S)[nH]1`, in that order: > 589 µM and 282 µM.
For `O=C1Nc2ccc(cc2)Cc2ccc(cc2)NC(=O)N2CCN(CC2)C(=O)Nc2ccc(cc2)Cc2ccc(cc2)NC(=O)N2CCN1CC2`, the EC50 is > 10.7 µM and the IC50 is > 10.7 µM.
Turning to `COc1ccccc1-n1c(=O)n(C)c(=O)n1C(C)(C)C`, the EC50 was > 200 µM and the IC50 is > 200 µM.
For `COC(=O)C1(Cc2ccc3c(c2)CCC3)Cc2ccccc2C1=O` (stereo not given), the EC50 is > 200 µM and the IC50 stood at 10.7 µM.
On to `CCCCCCN(CCCCCC)/N=C/c1c2c(O)c3c(O)c(C)c4c(c3c1O)C(=O)C(C)(O/C=C/C(OC)C(C)C(OC(C)=O)C(C)C(O)C(C)C(O)C(C)/C=C/C=C(C)C(=O)N2)O4` (stereo not given), for which the result was inactive.
